Experimental data published in ChEMBL document CHEMBL5303573, “Mapping human microbiome drug metabolism by gut bacteria and their genes” (Nature, 2019).

Legend:
[1] = The drug is tested on Providencia stuartii strain: ATCC25827 for biotransformation. The drug concentrations were measured before and after a 12-h incubation by liquid-chromatography-coupled mass spectrometry (LC–MS); conditions: 2 µM
[2] = bacteroides thetaiotaomicron, 12 h, 2 µM
Description: The drug is tested on Bacteroides thetaiotaomicron strain: VPI-5482 for biotransformation. The drug concentrations were measured before and after a 12-h incubation by liquid-chromatography-coupled mass spectrometry (LC–MS)

[3] = bacteroides stercoris, 12 h, 2 µM
Description: The drug is tested on Bacteroides stercoris strain: ATCC43183 for biotransformation. The drug concentrations were measured before and after a 12-h incubation by liquid-chromatography-coupled mass spectrometry (LC–MS)

[4] = The drug is tested on Bacteroides fragilis strain: HMW615 for biotransformation. The drug concentrations were measured before and after a 12-h incubation by liquid-chromatography-coupled mass spectrometry (LC–MS); conditions: 2 µM
[5] = The drug is tested on Eubacterium hallii strain: DSM3353 for biotransformation. The drug concentrations were measured before and after a 12-h incubation by liquid-chromatography-coupled mass spectrometry (LC–MS); conditions: anaerobutyricum hallii, 2 µM
[6] = The drug is tested on Clostridium asparagiforme strain: DSM15981 for biotransformation. The drug concentrations were measured before and after a 12-h incubation by liquid-chromatography-coupled mass spectrometry (LC–MS); type: ADME; design: dose 2 uM, timepoint 0 vs 12 hours; conditions: enterocloster asparagiformis, 2 µM
[7] = The drug is tested on Bifidobacterium longum subsp. Infantis strain: CCUG52486 for biotransformation. The drug concentrations were measured before and after a 12-h incubation by liquid-chromatography-coupled mass spectrometry (LC–MS); conditions: 2 µM
[8] = The drug is tested on Providencia rettgeri strain: DSM1131 for biotransformation. The drug concentrations were measured before and after a 12-h incubation by liquid-chromatography-coupled mass spectrometry (LC–MS); type: ADME; design: dose 2 uM, timepoint 0 vs 12 hours; conditions: 2 µM
[9] = bacteroides eggerthii, 12 h, 2 µM
Description: The drug is tested on Bacteroides eggerthii strain: DSM20697 for biotransformation. The drug concentrations were measured before and after a 12-h incubation by liquid-chromatography-coupled mass spectrometry (LC–MS)

[10] = The drug is tested on Collinsella intestinalis strain: DSM13280 for biotransformation. The drug concentrations were measured before and after a 12-h incubation by liquid-chromatography-coupled mass spectrometry (LC–MS); conditions: 2 µM
[11] = enterocloster bolteae, 12 h, 2 µM
Description: The drug is tested on Clostridium bolteae strain: ATCCBAA-613 for biotransformation. The drug concentrations were measured before and after a 12-h incubation by liquid-chromatography-coupled mass spectrometry (LC–MS)

[12] = The drug is tested on Clostridium sp. strain: fecal isolate for biotransformation. The drug concentrations were measured before and after a 12-h incubation by liquid-chromatography-coupled mass spectrometry (LC–MS); conditions: 2 µM
[13] = The drug is tested on Bacteroides fragilis strain: ATCC43859 for biotransformation. The drug concentrations were measured before and after a 12-h incubation by liquid-chromatography-coupled mass spectrometry (LC–MS); conditions: 2 µM
[14] = limosilactobacillus reuteri cf48-3a, 12 h, 2 µM
Description: The drug is tested on Lactobacillus reuteri CF48-3A strain: BEI HM-102 for biotransformation. The drug concentrations were measured before and after a 12-h incubation by liquid-chromatography-coupled mass spectrometry (LC–MS)

[15] = The drug is tested on Ruminococcus gnavus strain: ATCC29149 for biotransformation. The drug concentrations were measured before and after a 12-h incubation by liquid-chromatography-coupled mass spectrometry (LC–MS); conditions: mediterraneibacter gnavus, 2 µM
[16] = The drug is tested on Blautia hansenii strain: DSM20583 for biotransformation. The drug concentrations were measured before and after a 12-h incubation by liquid-chromatography-coupled mass spectrometry (LC–MS); conditions: 2 µM
[17] = segatella copri, 12 h, 2 µM
Description: The drug is tested on Prevotella copri strain: DSM18205 for biotransformation. The drug concentrations were measured before and after a 12-h incubation by liquid-chromatography-coupled mass spectrometry (LC–MS)

[18] = The drug is tested on Bacteroides cellulosilyticus strain: DSM14838 for biotransformation. The drug concentrations were measured before and after a 12-h incubation by liquid-chromatography-coupled mass spectrometry (LC–MS); conditions: 2 µM
[19] = The drug is tested on Enterococcus faecalis strain: V583 for biotransformation. The drug concentrations were measured before and after a 12-h incubation by liquid-chromatography-coupled mass spectrometry (LC–MS); conditions: 2 µM
[20] = victivallis vadensis, 12 h, 2 µM
Description: The drug is tested on Victivallis vadensis strain: ATCC BAA-548 for biotransformation. The drug concentrations were measured before and after a 12-h incubation by liquid-chromatography-coupled mass spectrometry (LC–MS)

Structure (SMILES)	Bacterial Biotransformation [1]	Bacterial Biotransformation [2]	Bacterial Biotransformation [3]	Bacterial Biotransformation [4]	Bacterial Biotransformation [5]	Bacterial Biotransformation [6]	Bacterial Biotransformation [7]	Bacterial Biotransformation [8]	Bacterial Biotransformation [9]	Bacterial Biotransformation [10]	Bacterial Biotransformation [11]	Bacterial Biotransformation [12]	Bacterial Biotransformation [13]	Bacterial Biotransformation [14]	Bacterial Biotransformation [15]	Bacterial Biotransformation [16]	Bacterial Biotransformation [17]	Bacterial Biotransformation [18]	Bacterial Biotransformation [19]	Bacterial Biotransformation [20]
CN1CCC[C@@H]1CCO[C@](C)(c1ccccc1)c1ccc(Cl)cc1.O=C(O)/C=C/C(=O)O [CLEMASTINE FUMARATE]	Compound NOT metabolized	Compound NOT metabolized	Compound metabolized	Compound NOT metabolized	Compound NOT metabolized	Compound NOT metabolized	Compound NOT metabolized	Compound metabolized	Compound metabolized	Compound NOT metabolized	Compound NOT metabolized	Compound metabolized	Compound NOT metabolized	Compound NOT metabolized	Compound NOT metabolized	Compound metabolized	Compound metabolized	Compound metabolized	–	–
COC(=O)[C@H](c1ccccc1Cl)N1CCc2sccc2C1.O=S(=O)(O)O [CLOPIDOGREL BISULFATE]	Compound NOT metabolized	Compound metabolized	Compound metabolized	Compound metabolized	Compound NOT metabolized	Compound NOT metabolized	Compound NOT metabolized	Compound NOT metabolized	Compound metabolized	Compound NOT metabolized	Compound NOT metabolized	Compound metabolized	Compound metabolized	Compound NOT metabolized	Compound NOT metabolized	Compound metabolized	Compound NOT metabolized	Compound NOT metabolized	Compound NOT metabolized	–
CN1CCN(C2=Nc3cc(Cl)ccc3Nc3ccccc32)CC1 [CLOZAPINE]	Compound NOT metabolized	Compound NOT metabolized	Compound NOT metabolized	Compound NOT metabolized	Compound NOT metabolized	–	Compound NOT metabolized	Compound NOT metabolized	Compound NOT metabolized	Compound NOT metabolized	Compound NOT metabolized	Compound NOT metabolized	–	Compound NOT metabolized	Compound NOT metabolized	Compound NOT metabolized	Compound NOT metabolized	Compound NOT metabolized	–	Compound NOT metabolized
CN(C)CCC=C1c2ccccc2C=Cc2ccccc21 [CYCLOBENZAPRINE]	Compound NOT metabolized	Compound NOT metabolized	Compound NOT metabolized	Compound NOT metabolized	Compound NOT metabolized	–	Compound NOT metabolized	–	Compound NOT metabolized	Compound NOT metabolized	Compound NOT metabolized	Compound metabolized	–	Compound NOT metabolized	Compound NOT metabolized	Compound metabolized	Compound NOT metabolized	–	Compound NOT metabolized	Compound NOT metabolized
O=P1(N(CCCl)CCCl)NCCCO1 (stereo not drawn) [CYCLOPHOSPHAMIDE ANHYDROUS]	Compound NOT metabolized	Compound NOT metabolized	Compound NOT metabolized	Compound metabolized	–	–	–	–	Compound NOT metabolized	Compound NOT metabolized	–	Compound NOT metabolized	–	–	Compound NOT metabolized	Compound metabolized	Compound NOT metabolized	–	Compound NOT metabolized	Compound NOT metabolized
CNCCC(Oc1ccc(C(F)(F)F)cc1)c1ccccc1 (stereo not drawn) [FLUOXETINE]	Compound metabolized	Compound metabolized	Compound metabolized	Compound metabolized	Compound metabolized	Compound metabolized	Compound metabolized	Compound NOT metabolized	Compound metabolized	Compound NOT metabolized	Compound metabolized	Compound metabolized	Compound metabolized	Compound metabolized	Compound metabolized	Compound metabolized	Compound metabolized	Compound NOT metabolized	Compound metabolized	–
CC(C(=O)O)c1ccc2c(c1)Cc1cccnc1O2 (stereo not drawn) [PRANOPROFEN]	Compound metabolized	Compound metabolized	Compound metabolized	Compound metabolized	Compound metabolized	Compound NOT metabolized	Compound metabolized	Compound metabolized	Compound metabolized	–	Compound metabolized	Compound metabolized	Compound metabolized	–	Compound NOT metabolized	Compound metabolized	Compound metabolized	Compound metabolized	Compound NOT metabolized	–
CC(=O)SCC(Cc1ccccc1)C(=O)NCC(=O)OCc1ccccc1 (stereo not drawn) [RACECADOTRIL]	Compound NOT metabolized	Compound metabolized	Compound metabolized	Compound metabolized	Compound NOT metabolized	–	Compound metabolized	Compound NOT metabolized	–	Compound NOT metabolized	Compound NOT metabolized	Compound metabolized	–	–	Compound NOT metabolized	Compound metabolized	Compound metabolized	Compound metabolized	–	Compound metabolized
